Patent publication US20230265082A1, “SUBSTITUTED 1,2,4-OXADIAZOLES AS SMALL MOLECULE INHIBITORS OF UBIQUITIN-SPECIFIC PROTEASE 28” (Dana-Farber Cancer Institute, Inc., priority 2020, published 2023)

biological target: T1, USP28 (Homo sapiens, UniProt Q96RU2); assay: Ubiquitin-Rhodamine110 assay; format: biochemical; conditions: USP28 at 1 nM, 30 minutes pre-incubation at room temperature, Ubiquitin-Rho110 125 nM
T1 sequence (Q96RU2 1-1077): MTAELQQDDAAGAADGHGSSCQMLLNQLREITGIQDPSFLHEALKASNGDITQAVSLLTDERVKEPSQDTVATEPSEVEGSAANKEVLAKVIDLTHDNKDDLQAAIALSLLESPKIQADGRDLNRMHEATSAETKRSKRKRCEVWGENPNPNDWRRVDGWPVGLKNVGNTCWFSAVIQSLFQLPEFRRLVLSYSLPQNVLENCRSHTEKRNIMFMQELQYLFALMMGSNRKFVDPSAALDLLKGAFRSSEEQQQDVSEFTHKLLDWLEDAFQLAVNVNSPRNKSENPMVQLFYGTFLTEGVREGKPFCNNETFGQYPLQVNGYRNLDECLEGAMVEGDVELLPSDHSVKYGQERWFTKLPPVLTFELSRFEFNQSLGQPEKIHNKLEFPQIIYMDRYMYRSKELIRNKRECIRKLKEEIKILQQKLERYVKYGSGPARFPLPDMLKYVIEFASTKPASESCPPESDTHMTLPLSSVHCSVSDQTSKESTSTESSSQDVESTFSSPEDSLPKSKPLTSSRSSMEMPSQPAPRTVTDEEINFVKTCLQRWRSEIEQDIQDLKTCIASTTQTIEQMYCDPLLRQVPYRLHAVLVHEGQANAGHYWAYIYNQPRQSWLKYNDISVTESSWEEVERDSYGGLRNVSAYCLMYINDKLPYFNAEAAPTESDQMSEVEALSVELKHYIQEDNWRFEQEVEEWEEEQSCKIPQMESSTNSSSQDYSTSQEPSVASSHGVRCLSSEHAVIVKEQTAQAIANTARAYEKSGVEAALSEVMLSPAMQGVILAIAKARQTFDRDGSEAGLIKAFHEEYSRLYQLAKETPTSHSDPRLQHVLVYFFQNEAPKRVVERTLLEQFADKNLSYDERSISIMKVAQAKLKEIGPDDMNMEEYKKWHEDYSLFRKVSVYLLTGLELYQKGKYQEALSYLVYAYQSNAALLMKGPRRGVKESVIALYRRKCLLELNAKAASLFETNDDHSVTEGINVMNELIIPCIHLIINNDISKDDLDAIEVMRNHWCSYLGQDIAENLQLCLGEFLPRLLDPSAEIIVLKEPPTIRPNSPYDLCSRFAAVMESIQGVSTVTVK
Method: USP28 (at 1 nM) was pre-incubated with different concentrations of inhibitors or DMSO as a control in 50 mM Tris pH 8, 50 mM NaCl, 0.002% Tween-20, 5 mM DTT. Compounds and protein were incubated for 30 minutes at room temperature prior to the addition of Ubiquitin-Rho110 (Boston Biochem) substrate for a final concentration of 125 nM. The initial rate of the reaction was measured by collecting fluorescence data at one-minute interval over 30-minute period using a Clariostar® fluorescence plate reader at excitation and emission wavelength of 485 nm and 535 nm, respectively. The calculated initial rate values were plotted against inhibitor concentrations to determine IC50s. All the experimental data were plotted using GraphPad Prism®.

**Q.** `Nc1ccc(-c2noc(Cc3ccc(Cl)c(Cl)c3)n2)cn1` [Compound 19] was tested. Which IC50 did it give?
**A.** < 1 µM

**Q.** Which IC50 does the source give for `O=c1ccc(-c2noc(Cc3ccccc3)n2)c[nH]1` [Compound 7] here?
**A.** 1 to 10 µM

**Q.** Which IC50 does the source give for `O=c1ccc(-c2noc(Cc3cc(F)cc(F)c3)n2)c[nH]1` [Compound 16] here?
**A.** 1 to 10 µM

**Q.** `Clc1ccc(-c2noc(Cc3ccc(Cl)c(Cl)c3)n2)cn1` [Compound 5] was tested. Which IC50 did it give?
**A.** < 1 µM

**Q.** `CN1CCN(c2cc(Cn3cc(-c4nc(-c5ccc(OC(F)(F)F)cc5)no4)ccc3=O)ccn2)CC1` [Compound 12] was tested. Which IC50 did it give?
**A.** > 100 µM

**Q.** Which IC50 does the source give for `COC(=O)c1ccc(Cc2noc(Cc3ccc(Cl)c(Cl)c3)n2)cc1` [Compound 14] here?
**A.** > 100 µM

**Q.** Which IC50 does the source give for `Clc1ccc(-c2noc(Cc3cccc4ccccc34)n2)cn1` [Compound 23] here?
**A.** 1 to 10 µM

**Q.** How did the IC50 turn out when `Clc1ccc(-c2noc(Cc3ccccc3)n2)cn1` [Compound 6] was run?
**A.** < 1 µM

**Q.** With `O=c1ccc(-c2noc(Cc3ccc(Cl)c(Cl)c3)n2)c[nH]1` [Compound 8] as the molecule, how does the IC50 read?
**A.** < 1 µM

**Q.** How did the IC50 turn out when `c1ccc2cc(Cc3nc(-c4ccncc4)no3)ccc2c1` [Compound 1] was run?
**A.** 1 to 10 µM

**Q.** `CCC(c1ccccc1)c1nc(-c2ccc(=O)[nH]c2)no1` (centres unmarked) [Compound 21] was tested. Which IC50 did it give?
**A.** > 100 µM

**Q.** With `O=c1ccc(-c2noc(Cc3ccc(Cl)cc3)n2)c[nH]1` [Compound 4] as the molecule, how does the IC50 read?
**A.** 1 to 10 µM

**Q.** For `Clc1ccc(Cc2nc(-c3ccc(Cl)nc3)no2)cc1` [Compound 3], which IC50 is on record?
**A.** 1 to 10 µM

**Q.** With `Clc1ccc(-c2noc(Cc3ccc4ccccc4c3)n2)cn1` [Compound 22] as the molecule, how does the IC50 read?
**A.** < 1 µM

**Q.** For `O=C(O)c1ccc(Cc2noc(Cc3ccc(Cl)c(Cl)c3)n2)cc1` [Compound 15], which IC50 is on record?
**A.** 10 to 100 µM

**Q.** With `CCC(c1ccccc1)c1nc(-c2ccc(Cl)nc2)no1` (centres unmarked) [Compound 20] as the molecule, how does the IC50 read?
**A.** > 100 µM

**Q.** How did the IC50 turn out when `N[C@@H](Cc1ccccc1)c1nc(-c2ccc(=O)[nH]c2)no1` [Compound 17] was run?
**A.** > 100 µM

**Q.** How did the IC50 turn out when `Nc1ccc(Cc2nc(-c3ccc(Cl)nc3)no2)cc1` [Compound 30] was run?
**A.** 10 to 100 µM

**Q.** `O=[N+]([O-])c1cc(Cc2nc(-c3ccc(Cl)nc3)no2)ccc1Cl` [Compound 31] was tested. Which IC50 did it give?
**A.** 1 to 10 µM

**Q.** `O=C(O)c1cccc(-c2noc(Cc3ccc(Cl)c(Cl)c3)n2)c1` [Compound 18] was tested. Which IC50 did it give?
**A.** 10 to 100 µM

**Q.** How did the IC50 turn out when `O=c1ccc(-c2nc(Cc3ccc(Cl)c(Cl)c3)no2)c[nH]1` [Compound 9] was run?
**A.** 1 to 10 µM

**Q.** Which IC50 does the source give for `O=c1ccc(-c2noc(Cc3cccc(Cl)c3)n2)c[nH]1` [Compound 28] here?
**A.** < 1 µM

**Q.** For `O=C(Nc1ccc(-c2noc(Cc3ccc(Cl)c(Cl)c3)n2)cn1)[C@H]1CCNC1` [Compound 32], which IC50 is on record?
**A.** 1 to 10 µM

**Q.** For `Clc1cccc(Cc2nc(-c3ccc(Cl)nc3)no2)c1` [Compound 29], which IC50 is on record?
**A.** 1 to 10 µM

**Q.** `CN(C)c1ccc(-c2noc(Cc3ccc(Cl)c(Cl)c3)n2)cn1` [Compound 13] was tested. Which IC50 did it give?
**A.** > 100 µM

**Q.** With `O=c1ccc(-c2noc(Cc3ccc(Cl)c(Cl)c3)n2)cn1Cc1ccccc1` [Compound 10] as the molecule, how does the IC50 read?
**A.** 1 to 10 µM

**Q.** How did the IC50 turn out when `c1ccc(-c2nc(-c3cccnc3)no2)nc1` [Compound 2] was run?
**A.** > 100 µM

**Q.** Which IC50 does the source give for `O=c1ccc(-c2nc(-c3ccc(OC(F)(F)F)cc3)no2)cn1Cc1ccnc(Cl)c1` [Compound 11] here?
**A.** > 100 µM

biological target: T1, USP28; assay: Competitive activity-based protein profiling (target engagement, Ub-VME probe, Western blot); format: binding; conditions: K562 cells lysed, treated with compound for 1 h followed by Ub-VME; Western blot (FIG. 3)
Method: K562 cells were lysed and treated with indicated concentrations of compound 8 for 1 h followed by incubation with Ub-VME. Ub-VME covalently modifies USP28, resulting in higher MW band observed by Western blot.
Cells were pelleted, washed with PBS buffer, lysed on ice (20 mM Tris pH 8, 150 mM NaCl, 1% NP-40, 10% glycerol, 1 mM TCEP, phosphatase inhibitor cocktails (Sigma P5726 and Calbiochem 524624), and protease inhibitors (pepstatin, leupeptin, PMSF, and aprotinin), and clarified by centrifugation. Protein content was quantified by BCA and diluted to 2 mg/mL in lysis buffer. Compounds were added at desired concentrations and incubated at room temperature for 30 minutes. Samples were then supplemented with 2 uM HA-Ub-VS and incubated at room temperature with shaking for 15 minutes. Reactions were quenched with 4×LDS sample buffer (Thermo Fisher B0007) supplemented with 10% BME, vortexed vigorously, and heated to 95° C. for 5 minutes. Samples were resolved by SDS-PAGE and analyzed by Western blot with the indicated antibodies.

**Q.** With `O=c1ccc(-c2noc(Cc3ccc(Cl)c(Cl)c3)n2)c[nH]1` [Compound 8] as the molecule, how does the “labeling of USP28 by covalent Ub-VME probe (target engagement)” value read?
**A.** prevents labeling of USP28 by the covalent Ub-VME probe
